Laboratory results published in patent US8288375B2, “Fungicidal bicyclic pyrazoles” (E.I. du Pont de Nemours and Company, priority 2007, dated 2012).
Marks after values point to notes of the source that are not given here.

What was measured:
Format in all cases: in vivo
[1] = test system: Colletotrichum orbiculare; test: Test F: cucumber Colletotrichum anthracnose, test suspension sprayed on cucumber seedlings, disease rating; conditions: for Test F disease control rating: 200 ppm test suspension
Fusarium graminearum = test: whole plant or invertebrate
Botrytis cinerea = test: Test H: tomato Botrytis, test suspension sprayed on tomato seedlings, disease rating; conditions: 200 ppm test suspension
Septoria nodorum = test: Test D: wheat glume blotch, test suspension sprayed on wheat seedlings, disease rating; conditions: 200 ppm test suspension
Rhizoctonia oryzae = test: Test I: turf brown patch, test suspension sprayed on creeping bent grass seedlings, disease rating; conditions: 200 ppm test suspension
Alternaria solani = test: Test G: tomato early blight, test suspension sprayed on seedlings, disease rating; conditions: for Test G disease control rating: 40 ppm test suspension (*);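 for all read-outs here: 200 ppm unless marked * meaning 40 ppm or ** meaning 10 ppm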
[2] = test system: Erysiphe graminis f. sp. tritici; test: Test A: wheat powdery mildew, test suspension sprayed on wheat seedlings, disease rating; conditions: 200 ppm test suspension, 100 = 100% disease control, 0 = no control
[3] = test system: Puccinia recondite f sp. tritici; test: Test B: wheat leaf rust, test suspension sprayed on wheat seedlings, disease rating;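 note: 200 ppm unless marked * meaning 40 ppm or ** meaning 10 ppm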
Septoria tritici = test: Test E: wheat leaf blotch, test suspension sprayed on wheat seedlings, disease rating; conditions: for Test E disease control rating: 40 ppm test suspension (*);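 for all read-outs here: 200 ppm unless marked * meaning 40 ppm or ** meaning 10 ppm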
Phytophthora infestans = test: whole plant or invertebrate
Pythium aphanidermatum = test: Test L: bluegrass pythium blight, test suspension sprayed on bluegrass seedlings, disease rating;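 note: 200 ppm unless marked * meaning 40 ppm or ** meaning 10 ppm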
Plasmopara viticola = test: Test K: grape downy mildew, grape seedlings inoculated and then sprayed, disease rating; conditions: 200 ppm test suspension

Compound	Test F disease control rating [1]	Test C disease control rating (Fusarium graminearum; 40 ppm test suspension (*))	Test H disease control rating (Botrytis cinerea)	Test D disease control rating (Septoria nodorum)	Test I disease control rating (Rhizoctonia oryzae)	Test G disease control rating (Alternaria solani)	Test A disease control rating [2]	Test B disease control rating ([3]; 40 ppm test suspension (*))	Test E disease control rating (Septoria tritici)	Test J disease control rating (Phytophthora infestans; 40 ppm test suspension (*))	Test L disease control rating (Pythium aphanidermatum; 40 ppm test suspension (*))	Test C disease control rating (Fusarium graminearum; 200 ppm test suspension)	Test K disease control rating (Plasmopara viticola)	Test J disease control rating (Phytophthora infestans; 200 ppm test suspension)	Test L disease control rating (Pythium aphanidermatum; 200 ppm test suspension)	also measured
CC(=O)N1CCCc2c(-c3ccnc(NC4CC4)n3)c(-c3ccc(F)cc3)nn21 [Compound 134, 1-[3-[2-(cyclopropylamino)-4-pyrimidinyl]-2-(4-fluorophenyl)-5,6-dihydropyrazolo[1,5-b]pyridazin-7(4H)-yl]ethanone]																pest or weed control at 40 ppm ([1]; Colletotrichum orbiculare, 144 h, 40 ppm test suspension (*)): 99%; pest or weed control at 40 ppm (Fusarium graminearum; Fusarium graminearum, in Triticum aestivum, 192 h, read-out: Test C disease control rating): 84%; pest or weed control at 200 ppm (Botrytis cinerea; Botrytis cinerea, 120 h): 53%; pest or weed control at 200 ppm (Septoria nodorum; Parastagonospora nodorum, 216 h): 96%; pest or weed control at 200 ppm (Rhizoctonia oryzae; Waitea circinata, in Agrostis stolonifera, 120 h): 24%; pest or weed control at 10 ppm (Alternaria solani; Alternaria solani, 168 h, 10 ppm test suspension (**)): 98%; pest or weed control at 200 ppm ([2]; Blumeria graminis, 192 h): 91%; pest or weed control at 40 ppm ([3]; Puccinia, 192 h, 40 ppm test suspension (*)): 85%; pest or weed control at 10 ppm (Septoria tritici; Zymoseptoria tritici, 504 h, 10 ppm test suspension (**)): 77%; pest or weed control at 10 ppm (Phytophthora infestans; Phytophthora infestans, in Solanum lycopersicum, 120 h, read-out: Test J disease control rating): 90%; pest or weed control at 40 ppm (Pythium aphanidermatum; Pythium aphanidermatum, 120 h, 40 ppm test suspension (*)): 100%
CC(C)Nc1nccc(-c2c(-c3ccc(F)cc3)nn3c2CCCN3)n1 [Compound 136]	0%	77* %	41%	97%	0%	99* %	0%	92* %	28* %	57* %	100* %					
C=CCN1CNCc2c(-c3ccnc(NC4CC4)n3)c(-c3ccc(F)cc3)nn21 [Compound 137]	0%	69* %	0%	92%	0%	99* %	86%	0* %	73* %	53* %	99* %					
CCC(C)CNc1nccc(-c2c(-c3ccc(F)cc3)nn3c2CCCC3)n1 (stereo not drawn) [compound 6]	0%		0%	0%	0%		0%					100%	0%	0%	0%	Test B disease control rating ([3]; 200 ppm test suspension): 73%
Nc1nccc(-c2c(-c3ccc(F)cc3)nn3c2CCCC3)n1 [compound 10]	0%		63%	87%	0%		90%					99%	0%	64%	42%	Test B disease control rating ([3]; 200 ppm test suspension): 99%
CN(N)c1nccc(-c2c(-c3ccc(F)cc3)nn3c2CCCC3)n1 [compound 70]	91%	0* %	29%	90%	9%	46* %	83%	0* %	84* %	53* %	98* %					
CC(CO)Nc1nccc(-c2c(-c3ccc(F)cc3)nn3c2CCCC3)n1.Cl (stereo not drawn) [compound 72]	0%	0* %	77%	82%	0%	98* %	0%	94* %	47* %	99* %	100* %					
CCCC(CO)Nc1nccc(-c2c(-c3ccc(F)cc3)nn3c2CCCC3)n1 (stereo not drawn) [compound 73]	0%	0* %	0%	78%	0%	0* %	0%	85* %	84* %	17* %	98* %					
CC(C)C(CO)Nc1nccc(-c2c(-c3ccc(F)cc3)nn3c2CCCC3)n1 (stereo not drawn) [compound 74]	0%	10* %	0%	60%	0%	0* %	20%	91* %	86* %	0* %	93* %					
Fc1ccc(-c2nn3c(c2-c2ccnc(NOCC4CCC4)n2)CCCC3)cc1 [compound 75]	0%	0* %	0%	0%	0%	0* %	31%	0* %	92* %	0* %	0* %					
COCC(C)Nc1nccc(-c2c(-c3ccc(OC)cc3)nn3c2CCC3)n1 (stereo not drawn) [compound 86]	0%		0%	51%	0%		0%					0%	0%	94%	99%	
CCC(C)Nc1nccc(-c2c(-c3ccc(F)cc3F)nn3c2CCC3)n1 (stereo not drawn) [compound 87]	0%		0%	78%	0%		0%					99%	0%	94%	99%	
COCC(C)Nc1nccc(-c2c(-c3ccc(F)cc3F)nn3c2CCC3)n1 (stereo not drawn) [compound 88]	0%		21%	60%	0%		0%					100%	0%	100%	99%	
COCC(C)Nc1nccc(-c2c(-c3ccc(C)cc3)nn3c2CCC3)n1 (stereo not drawn) [compound 89]	0%		8%	60%	0%		21%					100%	0%	0%	99%	
